Type in all cases: in vivo
In experiment [1] the test system is monocotylidonous and dicotylidonous weed and crop plants. The experiment can be described thus: Herbicidal post-emergence action (other test plants). As to conditions: post-emergence method, 80 g/ha. A digest of the protocol: (§1)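 Post-emergence spray test: wettable-powder formulations are applied at different amounts to one-leaf-stage plants in 600 l/ha water containing 0.2% wetting agent. After roughly three weeks in the greenhouse, percent effect is rated visually relative to untreated controls.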

Experiment [2] concerns Setaria viridis. Description: Herbicidal post-emergence action. The following applies: post-emergence method, 80 g/ha. A digest of the protocol:
as §1

Experiment [3] relates to Alopecurus myosuroides. Description: Herbicidal post-emergence action. As to conditions: post-emergence method, 80 g/ha. A digest of the protocol: as §1
The subject of experiment [4] is Echinocloa crus-galli. Description: Herbicidal post-emergence action. As to conditions: post-emergence method, 80 g/ha. A digest of the protocol: as §1
For experiment [5], the system named is Lolium multiflorum. The experiment can be described thus: Herbicidal post-emergence action. The following applies: post-emergence method, 80 g/ha. In outline: as §1
The test system of experiment [6] is Setaria viridis. Description: Herbicidal pre-emergence action. As to conditions: pre-emergence method, 80 g/ha, greenhouse, visual assessment vs untreated controls. The source says:
(§2) Seeds of monocotylidonous and dicotylidonous weed and crop plants are placed in sandy loam in wood fibre pots and covered with soil. The test compounds, formulated in the form of wettable powders (WP), are then, as an aqueous suspension with a water application rate of 600 l/ha (converted), with 0.2% of wetting agent added, applied to the surface of the covering soil in different amounts.
(§3) After the treatment, the pots are placed in a greenhouse and kept under good growth conditions for the test plants. The visual assessment of the emergence damage on the test plants is carried out after a trial period of three weeks by comparison with the untreated controls (herbicidal effect in percent: 100% effect=the plants have died, 0% effect=like control plants).

For experiment [7], the system named is Alopecurus myosuroides. Description: Herbicidal pre-emergence action. The following applies: pre-emergence method, 80 g/ha, greenhouse, visual assessment vs untreated controls.
From the text: as §2, §3

For experiment [8], the system named is Echinocloa crus-galli. The experiment can be described thus: Herbicidal pre-emergence action. As to conditions: pre-emergence method, 80 g/ha, greenhouse, visual assessment vs untreated controls.
From the text: as §2, §3

Experiment [9] relates to Lolium multiflorum. The experiment can be described thus: Herbicidal pre-emergence action. As to conditions: pre-emergence method, 80 g/ha, greenhouse, visual assessment vs untreated controls.
From the text: as §2, §3

The subject of experiment [10] is monocotylidonous and dicotylidonous weed and crop plants. Description: Herbicidal pre-emergence action (other test plants). The following applies: pre-emergence method, 80 g/ha, greenhouse, visual assessment vs untreated controls.
From the text: as §2, §3

As for `CCOC(=O)OC1=C(c2c(CC)cc(C)cc2CC)C(=O)C2CC3(CC12)OCC(C)O3` (mixture of isomers) [I-c-8], the “herbicidal effect against AVEFA (Avena fatua)” value (“herbicidal effect against AVEFA” for short) in experiment [1] is 60%. Moreover, the “herbicidal effect against SETVI (Setaria viridis)” value (“herbicidal effect against SETVI” below) in [2] worked out at 90%. In addition, in experiment [3], the “herbicidal effect against ALOMY (Alopecurus myosuroides)” value (shortened to “herbicidal effect against ALOMY”) is given as 90%. For the same compound, the “herbicidal effect against ECHCG (Echinochloa crus-galli)” value (shortened to “herbicidal effect against ECHCG”) in [4] stood at 100%. In addition, the “herbicidal effect against LOLMU (Lolium multiflorum)” value (shortened to “herbicidal effect against LOLMU”) in [5] was 100%. In experiment [6], the “herbicidal effect SETVI” value came to 50%. The “herbicidal effect ALOMY” value in experiment [7] is recorded as 60%. Besides, in experiment [8], the “herbicidal effect ECHCG” value came to 60%. In addition, the “herbicidal effect LOLMU” value in [9] is 100%. Also, the “herbicidal effect AVEFA” value in experiment [10] is recorded as 40%.

`C=C1CC2C(=O)C(c3c(C)cc(C)cc3OC)=C(OC(=O)OCC)C2C1` (racemic) [I-c-61]: the “herbicidal effect against AVEFA” value in [1] is recorded as 0%. In addition, the “herbicidal effect against SETVI” value in experiment [2] is reported as 90%. The “herbicidal effect against ALOMY” value in experiment [3] is on record as 40%. For the same compound, the “herbicidal effect against ECHCG” value in experiment [4] came out at 90%. Further, in experiment [5], the “herbicidal effect against LOLMU” value is given as 70%. The “herbicidal effect SETVI” value in experiment [6] turned out to be 90%. The “herbicidal effect ALOMY” value in experiment [7] is 70%. Moreover, the “herbicidal effect ECHCG” value in experiment [8] is 90%. For the same compound, the “herbicidal effect LOLMU” value in experiment [9] came to 50%. In experiment [10], the “herbicidal effect AVEFA” value was found to be 60%.

In the case of `CCc1cc(C)cc(C)c1C1=C(OC(=O)OC(C)C)C2CC3(COC(C)(C)O3)CC2C1=O` (mixture of isomers) [I-c-78], the “herbicidal effect against AVEFA” value in experiment [1] was found to be 0%. Besides, in experiment [2], the “herbicidal effect against SETVI” value stood at 80%. Also, the “herbicidal effect against ALOMY” value in experiment [3] came to 100%. In addition, the “herbicidal effect against ECHCG” value in experiment [4] is 90%. Moreover, the “herbicidal effect against LOLMU” value in experiment [5] is 100%. For the same compound, the “herbicidal effect SETVI” value in [6] is 80%. For the same compound, the “herbicidal effect ALOMY” value in [7] turned out to be 100%. For the same compound, in experiment [8], the “herbicidal effect ECHCG” value was 100%. In addition, in experiment [9], the “herbicidal effect LOLMU” value is 100%. In addition, the “herbicidal effect AVEFA” value in experiment [10] was found to be 90%.

Consider `CCOC(=O)OC1=C(c2c(C)cc(C)cc2CC)C(=O)C2CC3(COC(C)(C)O3)CC12` (mixture of isomers) [I-c-80], for which the “herbicidal effect against AVEFA” value in [1] is 70%. The “herbicidal effect against SETVI” value in [2] is on record as 90%. Further, the “herbicidal effect against ALOMY” value in [3] stood at 90%. Also, the “herbicidal effect against ECHCG” value in experiment [4] is listed as 100%. Besides, the “herbicidal effect against LOLMU” value in [5] was 100%. Further, the “herbicidal effect SETVI” value in [6] was determined as 60%. Besides, the “herbicidal effect ALOMY” value in experiment [7] turned out to be 100%. Further, the “herbicidal effect ECHCG” value in experiment [8] stood at 100%. Moreover, in [9], the “herbicidal effect LOLMU” value is recorded as 100%. Besides, the “herbicidal effect AVEFA” value in experiment [10] is 60%.

For `CCc1cc(C)cc(CC)c1C1=C(OC(=O)C(C)C)C2CC3(COC(C)(C)O3)CC2C1=O` (stereo not shown) [I-b-3], the “herbicidal effect against AVEFA” value in experiment [1] amounted to 40%. Further, the “herbicidal effect against SETVI” value in [2] came out at 20%. Besides, the “herbicidal effect against ALOMY” value in experiment [3] stood at 100%. Further, in experiment [4], the “herbicidal effect against ECHCG” value came out at 100%. Moreover, the “herbicidal effect against LOLMU” value in experiment [5] turned out to be 100%. The “herbicidal effect SETVI” value in [6] is recorded as 50%. For the same compound, the “herbicidal effect ALOMY” value in experiment [7] is 90%. In addition, in experiment [8], the “herbicidal effect ECHCG” value turned out to be 0%. In addition, the “herbicidal effect LOLMU” value in [9] worked out at 100%. The “herbicidal effect AVEFA” value in experiment [10] is on record as 60%.

For the compound `CCc1cc(C)cc(C)c1C1=C(OC(C)=O)C2CC3(COC(C)(C)O3)CC2C1=O` (stereo not shown) [I-b-66], the “herbicidal effect against AVEFA” value in experiment [1] was 90%. Moreover, in experiment [2], the “herbicidal effect against SETVI” value turned out to be 80%. Besides, the “herbicidal effect against ALOMY” value in [3] is reported as 100%. Besides, the “herbicidal effect against ECHCG” value in [4] is 100%. For the same compound, in experiment [5], the “herbicidal effect against LOLMU” value worked out at 100%. In experiment [6], the “herbicidal effect SETVI” value amounted to 80%. Also, the “herbicidal effect ALOMY” value in experiment [7] is on record as 80%. The “herbicidal effect ECHCG” value in [8] was 100%. Further, the “herbicidal effect LOLMU” value in [9] is 100%. In addition, the “herbicidal effect AVEFA” value in experiment [10] was found to be 80%.

For `COc1cc(C)cc(C)c1C1=C(OC(=O)C(C)C)C2CC3(CC2C1=O)OCCO3` (stereo not shown) [I-b-65], in experiment [1], the “herbicidal effect against AVEFA” value worked out at 90%. Besides, in [2], the “herbicidal effect against SETVI” value stood at 100%. Moreover, the “herbicidal effect against ALOMY” value in experiment [3] was 90%. In addition, in [4], the “herbicidal effect against ECHCG” value amounted to 100%. Moreover, the “herbicidal effect against LOLMU” value in experiment [5] came to 100%. Further, in experiment [6], the “herbicidal effect SETVI” value worked out at 70%. Further, the “herbicidal effect ALOMY” value in experiment [7] is 60%. In addition, the “herbicidal effect ECHCG” value in experiment [8] is reported as 90%. Moreover, in experiment [9], the “herbicidal effect LOLMU” value is 100%. For the same compound, in [10], the “herbicidal effect AVEFA” value was 70%.

The values above are taken from US8367873B2, “Phenyl-substituted bicyclooctane-1,3-dione derivatives” (Bayer Cropscience AG, priority 2008, dated 2013).
